We go through 23 compounds from PubChem BioAssay AID328 (DTP/NCI, 2004).

Values joined by “and” are separate entries in the source; they are usually repeats but may differ in a detail not shown here. Identical values can stand only once. Inconclusive results and toxic doses are left out.

The subject of this assay is BDF1 mice, P388 leukemia ip, median survival T/C. Kind of assay: NCI In Vivo Anticancer Drug Screen. Data for tumor model P388 Leukemia (intraperitoneal) in B6D2F1 (BDF1) mice. To be noted: endpoint: median survival time, higher = longer survival. The method in brief:
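Antitumour effect was judged in vivo: survival in drug-treated mice, normalised to that of vehicle-dosed controls, gives the reported T/C.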

Where [1] appears, read: dose: 25.0 mg/kg/injection, schedule: Q01DX009 (ip), vehicle: saline with Tween-80.
Where [2] appears, read: dose: 50.0 mg/kg/injection, schedule: Q01DX009 (ip), vehicle: saline with Tween-80.
Setting [3] is: dose: 100.0 mg/kg/injection, schedule: Q01DX009 (ip), vehicle: saline with Tween-80.
The mark [4] stands for this setting: dose: 100.0 mg/kg/injection, schedule: Q04DX003 (ip), vehicle: Klucel (hydroxypropylcellulose) (HPC).
[5] abbreviates: dose: 200.0 mg/kg/injection, schedule: Q04DX003 (ip), vehicle: Klucel (hydroxypropylcellulose) (HPC).
The mark [6] stands for this setting: dose: 400.0 mg/kg/injection, schedule: Q04DX003 (ip), vehicle: Klucel (hydroxypropylcellulose) (HPC).
The mark [7] stands for this setting: dose: 50.0 mg/kg/injection, schedule: Q01DX009 (ip), vehicle: saline.
[8] abbreviates: dose: 100.0 mg/kg/injection, schedule: Q01DX009 (ip), vehicle: saline.
Where [9] appears, read: dose: 25.0 mg/kg/injection, schedule: Q01DX009 (ip), vehicle: Klucel (hydroxypropylcellulose) (HPC).
The mark [10] stands for this setting: dose: 50.0 mg/kg/injection, schedule: Q01DX009 (ip), vehicle: Klucel (hydroxypropylcellulose) (HPC).
Setting [11] is: dose: 100.0 mg/kg/injection, schedule: Q01DX009 (ip), vehicle: Klucel (hydroxypropylcellulose) (HPC).
Where [12] appears, read: dose: 100.0 mg/kg/injection, schedule: Q04DX003 (ip), vehicle: saline with Tween-80.
Setting [13] is: dose: 200.0 mg/kg/injection, schedule: Q01DX009 (ip), vehicle: saline with Tween-80.
Setting [14] is: dose: 200.0 mg/kg/injection, schedule: Q01DX009 (ip), vehicle: Klucel (hydroxypropylcellulose) (HPC).
Where [15] appears, read: dose: 100.0 mg/kg/injection, schedule: Q04DX003 (ip), vehicle: saline.

As to `CCCCCCCCCCCCCCSC(CC(=O)O)C(=O)NNC(N)=S` (stereo not given), the T/C is, setting by setting: (dose: 87.5 mg/kg/injection, schedule: Q01DX009 (ip), vehicle: saline with Tween-80) 101 % of control; (dose: 175.0 mg/kg/injection, schedule: Q01DX009 (ip), vehicle: saline with Tween-80) 101 % of control; (dose: 350.0 mg/kg/injection, schedule: Q01DX009 (ip), vehicle: saline with Tween-80) 113 % of control.
In the case of `O=C(NC(=O)c1c(F)cccc1F)Nc1ccc([N+](=O)[O-])cn1`, the T/C under setting [1] was 96 % of control, the T/C under setting [2] was 90 % of control and the T/C under setting [3] was 90 % of control.
On to `CC(C)c1c[nH]c(=O)[nH]c1=O`, for which the T/C is, setting by setting: (dose: 100.0 mg/kg/injection, schedule: Q01DX001 (ip), vehicle: saline) 100 % of control; under setting [4], 104 % of control; (dose: 200.0 mg/kg/injection, schedule: Q01DX001 (ip), vehicle: saline) 95 % of control; under setting [5], 90 % of control; (dose: 400.0 mg/kg/injection, schedule: Q01DX001 (ip), vehicle: saline) 100 % of control; under setting [6], 104 % of control.
For the compound `COc1ccc(C(=O)N(N)C2CCCCC2)cc1`, the T/C by setting is: under setting [7], 105 % of control; under setting [8], 105 % of control; (dose: 200.0 mg/kg/injection, schedule: Q01DX009 (ip), vehicle: saline) 100 % of control.
Turning to `C=CCc1c(C)cc(C)c(C)c1O`, the T/C was 96 % of control (dose: 100.0 mg/kg/injection, schedule: Q04DX003 (sc), vehicle: olive oil, sesame oil, peanut oil); 92 % of control (dose: 200.0 mg/kg/injection, schedule: Q04DX003 (sc), vehicle: olive oil, sesame oil, peanut oil); 92 % of control (dose: 400.0 mg/kg/injection, schedule: Q04DX003 (sc), vehicle: olive oil, sesame oil, peanut oil).
As for `Cc1cc(C)c(C(=O)C=O)c(C)c1`, the T/C reads like this: under setting [9], 99 % of control; under setting [10], 104 % of control; under setting [11], 110 % of control.
As to `CCSc1ncnc2nc[nH]c12`, the T/C under setting [4] was 104 % of control and the T/C under setting [5] is 109 % of control.
Take `CCCC(C(=O)c1ccc(OC)cc1)C(O)(C(F)(F)F)C(F)(F)F` (stereo not given): the T/C reads like this: under setting [4], 95 % of control; under setting [5], 100 % of control; under setting [6], 100 % of control.
Turning to `[OH-].[OH-].[Pd+2].c1ccc(CSc2ncnc3nc[nH]c23)cc1.c1ccc(CSc2ncnc3nc[nH]c23)cc1.c1ccc(CSc2ncnc3nc[nH]c23)cc1.c1ccc(CSc2ncnc3nc[nH]c23)cc1`, the T/C is, setting by setting: under setting [3], 90 % of control; under setting [12], 90 % of control; under setting [13], 90 % of control; (dose: 200.0 mg/kg/injection, schedule: Q04DX003 (ip), vehicle: saline with Tween-80) 90 % of control; (dose: 400.0 mg/kg/injection, schedule: Q01DX009 (ip), vehicle: saline with Tween-80) 90 % of control.
On to `CC1(C)CNC2OC1NCC2(C)C`, for which the T/C is 100 % of control (dose: 100.0 mg/kg/injection, schedule: Q01DX001 (ip), vehicle: saline sonified); 100 % of control (dose: 200.0 mg/kg/injection, schedule: Q01DX001 (ip), vehicle: saline sonified); 104 % of control (dose: 400.0 mg/kg/injection, schedule: Q01DX001 (ip), vehicle: saline sonified).
On to `CSc1ncncc1N`, for which the T/C is, setting by setting: under setting [7], 105 % of control; under setting [8], 105 % of control.
Take `CCCC(=O)c1cc(O)c(O)cc1O`: the T/C by setting is: (dose: 12.5 mg/kg/injection, schedule: Q01DX009 (ip), vehicle: saline with Tween-80) 95 % of control; under setting [1], 104 % of control; under setting [2], 106 % of control.
As for `C1CC[CH]([Sn]([CH]2CCCCC2)[CH]2CCCCC2)CC1`, the T/C is 98 % of control (dose: 0.78 mg/kg/injection, schedule: Q01DX009 (ip), vehicle: saline with Tween-80) and 89 % of control (dose: 1.56 mg/kg/injection, schedule: Q01DX009 (ip), vehicle: saline with Tween-80).
As for `Cc1noc2ncnc(NCCCN(C)C)c12`, the T/C is 99 % of control under setting [2], 99 % of control under setting [3] and 102 % of control under setting [13].
Turning to `CC1(C)N=C(N)N=C(N)N1c1cccc(Cl)c1`, the T/C reads like this: (dose: 1.9 mg/kg/injection, schedule: Q04DX003 (ip), vehicle: saline) 104 % of control; (dose: 2.9 mg/kg/injection, schedule: Q04DX003 (ip), vehicle: saline) 100 % of control; (dose: 10.0 mg/kg/injection, schedule: Q04DX003 (ip), vehicle: saline) 113 % of control; (dose: 18.0 mg/kg/injection, schedule: Q01DX009 (ip), vehicle: saline) 195 % of control; (dose: 18.7 mg/kg/injection, schedule: Q01DX009 (ip), vehicle: saline) 168 % of control; (dose: 28.0 mg/kg/injection, schedule: Q01DX009 (ip), vehicle: saline) 160 % of control and 209 % of control. Also, the T/C was 175 % of control and 177 % of control (dose: 37.5 mg/kg/injection, schedule: Q04DX003 (ip), vehicle: saline); 95 % of control (dose: 40.0 mg/kg/injection, schedule: Q01DX009 (ip), vehicle: saline); 213 % of control (dose: 42.0 mg/kg/injection, schedule: Q01DX009 (ip), vehicle: saline); 150 % of control (dose: 56.25 mg/kg/injection, schedule: Q04DX003 (ip), vehicle: saline).
Regarding `CCO/C=C1\SC(=S)N(c2cccc(OC)c2)C1=O`, under setting [12], the T/C was 122 % of control.
As for `CCC(C#N)C1=CCCCCC1` (stereo not given), the T/C (dose: 25.0 mg/kg/injection, schedule: Q04DX003 (ip), vehicle: saline with Tween-80) is 109 % of control; the T/C (dose: 50.0 mg/kg/injection, schedule: Q04DX003 (ip), vehicle: saline with Tween-80) is 121 % of control; the T/C under setting [12] was 118 % of control.
Regarding `CCCCC(=O)c1ccc(Cl)cc1`, the T/C was 105 % of control under setting [11]; 104 % of control under setting [4]; 110 % of control under setting [14]; 100 % of control under setting [5]; 115 % of control (dose: 400.0 mg/kg/injection, schedule: Q01DX009 (ip), vehicle: Klucel (hydroxypropylcellulose) (HPC)); 100 % of control under setting [6].
As for `CC(=O)OC1C=COC(C)C1OC(C)=O` (stereo not given), the T/C runs as follows: under setting [7], 98 % of control; under setting [8], 114 % of control; under setting [15], 100 % of control; (dose: 200.0 mg/kg/injection, schedule: Q04DX003 (ip), vehicle: saline) 99 % of control; (dose: 400.0 mg/kg/injection, schedule: Q04DX003 (ip), vehicle: saline) 100 % of control.
Consider `COC(=O)C(c1ccccc1)C(Br)C(=O)c1ccccc1` (stereo not given), for which the T/C was 100 % of control under setting [4], 88 % of control under setting [14], 104 % of control under setting [5] and 90 % of control under setting [6].
For `Cc1ccc(S(=O)(=O)Oc2ccc([N+](=O)[O-])cc2[N+](=O)[O-])cc1`, the T/C is 104 % of control (dose: 25.0 mg/kg/injection, schedule: Q04DX003 (ip), vehicle: saline); 109 % of control (dose: 50.0 mg/kg/injection, schedule: Q04DX003 (ip), vehicle: saline); 109 % of control under setting [15].
Turning to `O=c1[nH]c(-c2ccccc2)c(-c2ccccc2)[nH]1`, the T/C is, setting by setting: (dose: 12.5 mg/kg/injection, schedule: Q01DX009 (ip), vehicle: Klucel (hydroxypropylcellulose) (HPC)) 95 % of control; under setting [9], 86 % of control; under setting [10], 86 % of control.
For the compound `NCC(O)COc1ccccc1N` (stereo not given), the T/C (dose: 3.0 mg/kg/injection, schedule: Q01DX009 (ip), vehicle: saline) was 100 % of control; the T/C (dose: 3.0 mg/kg/injection, schedule: Q04DX003 (ip), vehicle: saline) was 108 % of control and 109 % of control; the T/C (dose: 6.0 mg/kg/injection, schedule: Q01DX009 (ip), vehicle: saline) is 100 % of control; the T/C (dose: 6.0 mg/kg/injection, schedule: Q04DX003 (ip), vehicle: saline) was 95 % of control and 109 % of control; the T/C (dose: 12.0 mg/kg/injection, schedule: Q01DX009 (ip), vehicle: saline) was 96 % of control; the T/C (dose: 12.0 mg/kg/injection, schedule: Q04DX003 (ip), vehicle: saline) was 100 % of control and 113 % of control.
